# Data as given in US9266867B2, “Piperidinyl monocarboxylic acids as S1P1 receptor agonists” (BIOPROJET, priority 2011, dated 2016).
# Structures can show the parent of a compound that is named as a salt. Where two headings read alike, the source gives them in different places.
# Tests used:
# [1] = Pharmacokinetic parameters in Swiss mice after oral administration; conditions: mouse, in vivo, 1 mg/kg p.o.; for Cmax: n = 4; for AUC(0-t): n = 4, read-out: AUC(0-48 h)
# Excerpt: Moreover, preferred compounds of the present invention also display an outstanding bioavailability.
# circulating lymphocytes [2] = test: In vivo lymphopenia ED50 in mice; conditions: Mus musculus, Lymphocyte, read-out: ED50 (EDG1) (In mice)
# Procedure: (§1) b) Assessment of Lymphopenia
# (§2) Lymphopenia was assessed in vivo. Experiments were done in non-fasted/fasted Swiss mice and/or: Sprague Dawley rats, Wistar rats, Beagle dogs, Cynomolgus monkeys. Compounds were administered orally in suspension in carboxymethyl-cellulose 0.5-1% in water (W/V). Blood was taken on anesthetized/non anaesthetized animal (4% isoflurane) and samples collected in EDTA-containing vacuum tubes from 1 h 30 to 72 hours post administration for lymphopenia measurement.
# (§3) After 10 minutes stirring, cells were counted using ABC Vet haemocytometer (Scil vet animal Care) for rodent and dog or ADVIA 120 hematology analyzer for monkeys. Pharmacodynamic effect was measured by the decrease in circulating lymphocytes by test item treatment in comparison with haematological parameters of control animals or versus predosing in the same animals.
# EDG1 = test: In vivo activity versus counterpart of WO 2007/132307; conditions: at 1 mg/kg
# Excerpt: The compounds of the invention show a better in vivo activity profile over their corresponding counterparts of WO 2007/132307, as evidenced below: […]
# EDG-1 [3] = biological target: T1, EDG-1 (Homo sapiens, UniProt P21453); test: 35S-GTPγS binding assay, EDG1 (S1P1); format: biochemical; parameters: expressed in transfected cells
# T1 sequence (P21453 whole entry): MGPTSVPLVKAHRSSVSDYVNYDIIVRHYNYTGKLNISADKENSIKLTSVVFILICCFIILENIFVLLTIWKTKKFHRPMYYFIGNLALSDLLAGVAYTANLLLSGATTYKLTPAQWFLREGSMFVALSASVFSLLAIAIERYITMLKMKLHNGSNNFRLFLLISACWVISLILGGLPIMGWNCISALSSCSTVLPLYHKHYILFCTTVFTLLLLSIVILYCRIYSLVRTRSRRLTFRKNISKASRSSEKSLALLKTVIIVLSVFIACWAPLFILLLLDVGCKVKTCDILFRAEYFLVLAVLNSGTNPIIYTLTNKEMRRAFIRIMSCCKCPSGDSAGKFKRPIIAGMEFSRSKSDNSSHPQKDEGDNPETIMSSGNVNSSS
# Summary of the method: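 Cell membranes (~15 μg protein) in 50 mM tris-HCl pH 7.5, 10 mM MgCl2, 100 mM NaCl, 10 μM GDP with 0.025 nM [35S]GTP-γ-S; nonspecific binding defined by 10 μM unlabelled GTP-γ-S. Intrinsic activity expressed relative to maximal S1P stimulation (full/partial agonism).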
# EDG3 = EDG3 (Homo sapiens, UniProt Q99500); test: 35S-GTPγS binding assay, EDG3 (S1P3); format: biochemical; conditions: Table 1a
# EDG3, sequence (Q99500 whole entry, species assumed): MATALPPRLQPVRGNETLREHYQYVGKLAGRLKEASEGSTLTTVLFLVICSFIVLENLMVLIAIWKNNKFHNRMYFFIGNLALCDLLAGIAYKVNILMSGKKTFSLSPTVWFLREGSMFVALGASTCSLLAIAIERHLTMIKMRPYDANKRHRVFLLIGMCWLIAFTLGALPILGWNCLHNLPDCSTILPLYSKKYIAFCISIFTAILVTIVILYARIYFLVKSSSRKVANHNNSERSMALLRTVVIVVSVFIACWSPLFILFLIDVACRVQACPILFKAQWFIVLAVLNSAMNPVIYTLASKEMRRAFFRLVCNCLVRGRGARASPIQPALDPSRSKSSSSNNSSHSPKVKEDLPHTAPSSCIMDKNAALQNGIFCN
# Procedure: (§4) a) 35S-GTPγS Binding Assay GTP-γ-^35S binding was performed using […]15 μg protein of cell membranes suspended in 50 mM tris-HCl pH 7.5 containing 10 mM MgCl2, 100 mM NaCl and 10 μM GDP. The radioligand was 0.025 nM [^35S] GTP-γ-S and non specific binding determined in the presence of 10 μM non-radioactive GTP-γ-S. […] The maximal stimulation elicited by S1P was taken as a reference to define full or partial agonism and calculate the intrinsic activity (i.a.) of compounds.
# hERG channel = hERG channel (Homo sapiens, UniProt Q12809); test: biochemical
# hERG channel, sequence (Q12809 whole entry): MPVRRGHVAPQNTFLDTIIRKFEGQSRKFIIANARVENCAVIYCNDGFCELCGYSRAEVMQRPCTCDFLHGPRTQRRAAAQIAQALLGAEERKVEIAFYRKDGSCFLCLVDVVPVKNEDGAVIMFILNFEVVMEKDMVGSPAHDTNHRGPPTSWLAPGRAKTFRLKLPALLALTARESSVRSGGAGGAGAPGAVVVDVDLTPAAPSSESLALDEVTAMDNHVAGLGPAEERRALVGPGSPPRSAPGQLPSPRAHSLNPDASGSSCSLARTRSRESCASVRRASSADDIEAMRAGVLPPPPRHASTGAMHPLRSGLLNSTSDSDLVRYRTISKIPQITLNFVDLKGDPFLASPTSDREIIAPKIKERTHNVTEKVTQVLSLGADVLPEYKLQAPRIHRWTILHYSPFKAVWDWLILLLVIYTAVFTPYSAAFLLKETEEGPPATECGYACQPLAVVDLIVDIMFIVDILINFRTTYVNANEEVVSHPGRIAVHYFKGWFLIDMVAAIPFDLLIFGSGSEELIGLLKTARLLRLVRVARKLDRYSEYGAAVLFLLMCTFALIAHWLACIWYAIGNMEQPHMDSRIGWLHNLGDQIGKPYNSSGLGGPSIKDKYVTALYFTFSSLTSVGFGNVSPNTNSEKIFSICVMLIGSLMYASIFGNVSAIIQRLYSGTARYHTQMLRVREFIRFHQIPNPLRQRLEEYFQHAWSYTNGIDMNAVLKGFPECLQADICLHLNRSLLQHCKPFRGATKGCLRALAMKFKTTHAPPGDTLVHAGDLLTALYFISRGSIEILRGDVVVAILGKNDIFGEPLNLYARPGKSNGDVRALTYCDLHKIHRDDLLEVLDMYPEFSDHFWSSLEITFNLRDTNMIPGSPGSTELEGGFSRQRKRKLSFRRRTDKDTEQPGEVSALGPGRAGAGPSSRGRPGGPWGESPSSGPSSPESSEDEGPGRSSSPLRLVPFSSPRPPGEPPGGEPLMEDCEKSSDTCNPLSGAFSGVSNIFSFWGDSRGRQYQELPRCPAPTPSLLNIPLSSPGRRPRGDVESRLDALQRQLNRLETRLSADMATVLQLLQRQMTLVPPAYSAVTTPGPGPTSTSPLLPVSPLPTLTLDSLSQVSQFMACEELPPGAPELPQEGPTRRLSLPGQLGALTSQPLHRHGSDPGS
# Procedure: c) Evaluation of Activity for hERG Blockade Liability
# HEK293 cells were stably transfected with the human hERG receptor gene. Binding assays were performed using 5 μg of cell membranes expressing hERG channel resuspended in 10 mM Hepes pH 7.4, 135 mM NaCl, 60 mM DL-Aspartic Acid Potassium, 1 mM EGTA, 0.8 mM MgCl2, 10 mM (D+) Glucose, 0.01% BSA, in a final volume of 200 μL. For [^3H] […] Non specific binding was estimated in the presence of 1 μM Astemizole. The reaction was terminated by filtration through Durapore BV 1.2 μm filters pre-soaked in 3% polyethyleneimine 10 minutes at room temperature. Filters were rinsed 2 times with 250 μL of ice cold 25 mM Tris-HCl pH 7.4 buffer. The filter-bound radioactivity was measured in a liquid scintillation counter with 50 μL of scintillation fluid. [^3H]
# The hERG binding investigated by use of [^3H]
# EDG5 = EDG5 (Homo sapiens, UniProt O95136); test: 35S-GTPγS binding assay, EDG5 (S1P2); format: biochemical; conditions: Table 1a
# EDG5, sequence (O95136 whole entry, species assumed): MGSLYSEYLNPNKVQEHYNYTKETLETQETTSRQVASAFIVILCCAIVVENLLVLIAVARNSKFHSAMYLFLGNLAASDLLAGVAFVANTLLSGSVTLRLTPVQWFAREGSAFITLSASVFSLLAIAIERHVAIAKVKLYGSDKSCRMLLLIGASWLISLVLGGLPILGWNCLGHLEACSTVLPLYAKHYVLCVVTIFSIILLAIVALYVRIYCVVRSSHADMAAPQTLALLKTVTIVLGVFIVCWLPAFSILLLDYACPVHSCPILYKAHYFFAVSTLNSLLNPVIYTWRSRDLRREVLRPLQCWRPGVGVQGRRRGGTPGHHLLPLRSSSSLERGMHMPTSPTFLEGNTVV
# Procedure: as §4
# circulating lymphocytes [4] = test: Assessment of lymphopenia in rats; format: in vivo; conditions: 0.3 mpk, 24 hrs
# Procedure: as §1, §2, §3
# EDG-1 [5] = biological target: T1, EDG-1; test: [3H]dihydroS1P binding assay on HEK293-EDG-1 cell membranes; parameters: expressed in transfected cells; host or cells: HEK293; conditions: transfected HEK293 cells; read-out: IC50, competition with [3H]dihydroS1P
# Excerpt: Furthermore, we settled a binding assay on HEK293-EDG-1 cells on these membranes using [3H]dihydroS1P. By Scatchard analysis we identified one binding site for [3H]dihydroS1P. Both S1P and dihydroS1P (an S1P biometabolite) compete with [3H]dihydroS1P on transfected HEK293 cells with an 1050 closed to 5± nM and a maximum binding capacity Bmax of […] of protein.
# [6] = Table 1a, read-out: EC50 (nM) EDG1
SMILES,"EC50 (EDG-1 [3]; Table 1b, read-out: EDG1 EC50)",EC50 (EDG3),EC50 (EDG-1 [3]; [6]),ED50 (circulating lymphocytes [2]),Ki (hERG channel),also measured
"CC(C)Cc1ccc(-c2nc(-c3ccc(CN4CC(C(=O)O)C4)cc3)no2)cc1 [Comparative compound 5, reference compound]",,,,,,Cmax [1]: 495 ng/mL; AUC(0-t) [1]: 4530 ng·h/mL
"Cl.O=C(O)C1(C(=O)O)CCN(Cc2ccc(-c3noc(-c4ccc(-c5ccccc5)c(F)c4)n3)cc2)CC1 [Comparative example 6, reference compound]",,,,0.4 mg/kg,,
"CC(C)Cc1ccc(-c2nc(-c3ccc(CN4CCC(C(=O)O)(C(=O)O)CC4)cc3)no2)cc1 [Comparative example 7, reference compound]",,,,1.8 mg/kg,,
"Cl.O=C(O)C1(C(=O)O)CCN(Cc2ccc(-c3noc(-c4ccc(C5CCCCC5)cc4)n3)cc2)CC1 [Comparative example 8, reference compound]",,,,10 mg/kg,,
"CC(C)Cc1ccc(-c2nc(-c3ccc(CN[C@H]4C[C@@H](C(=O)O)C4)cc3)no2)cc1 [Comparative example 9, reference compound]",,,,,,ED50 (EDG1) (EDG1): Inactive at 1 mg/kg
"CC(C)Cc1ccc(-c2nc(-c3ccc(CN4CCC(C)(C(=O)O)CC4)cc3)no2)cc1Cl [Example 3, 1-{4-[5-(3-chloro-4-isobutylphenyl)-[1,2,4]-oxadiazol-3-yl]benzyl}-4-methylpiperidine-4-carboxylic acid]",,,,0.2 mg/kg,,Cmax [1]: 798 ng/mL; AUC(0-t) [1]: 13100 ng·h/mL
"CC1(C(=O)O)CCN(Cc2ccc(-c3noc(-c4ccc(-c5ccccc5)c(Cl)c4)n3)cc2)CC1 [Example 8, 1-{4-[5-(2-Chlorobiphenyl-4-yl)-[1,2,4]-oxadiazol-3-yl]benzyl}-4-methylpiperidine-4-carboxylic acid]",< 1 nM,,,0.1 mg/kg,,
"COCC1(C(=O)O)CCN(Cc2ccc(-c3noc(-c4ccc(C5CCCCC5)c(Cl)c4)n3)cc2)CC1 [Example 10, 1-{4-[5-(3-chloro-4-cyclohexylphenyl)-[1,2,4]-oxadiazol-3-yl]benzyl}-4-methoxymethylpiperidine-4-carboxylic acid tert-butyl amine salt]",< 1 nM,610 nM,< 1 nM,0.2 mg/kg,> 10000 nM,
"CCCCCCCCCCCCC/C=C/[C@@H](O)[C@@H](N)COP(=O)(O)O [Example S1P, sphingosine-1-phosphate]",,,,,,IC50 (EDG-1 [5]): ~5 nM
CCCCCCCCCCCCCCC[C@@H](O)[C@@H](N)COP(=O)(O)O [dihydroS1P],,,,,,IC50 (EDG-1 [5]): ~5 nM
CC(C)Cc1ccc(-c2nc(-c3ccc(CN4CCC(C)(C(=O)O)CC4)cc3)no2)cc1 [drawing 239],,,,,,lymphopenia (EDG1): 40% at 1 mg/kg

# The next lines start with results.
"EC50 (EDG-1 [3]; Table 1b, read-out: EDG1 EC50)",EC50 (EDG3),EC50 (EDG-1 [3]; [6]),SMILES,ED50 (circulating lymphocytes [2]),Ki (hERG channel),also measured
< 1 nM,198 nM,< 1 nM,"CCC1(C(=O)O)CCN(Cc2ccc(-c3noc(-c4ccc(CC(C)C)c(Cl)c4)n3)cc2)CC1 [Example 11, 1-{4-[5-(3-chloro-4-isobutylphenyl)-[1,2,4]-oxadiazol-3-yl]benzyl}-4-ethylpiperidine-4-carboxylic acid tert-butyl amine salt]",,> 10000 nM,EC50 (EDG5): > 1000 nM; Lymphopenia in rats % lymphopenia at given dose at 24 hrs (circulating lymphocytes [4]; Wistar female): 75% (0.3 mpk)
< 1 nM,> 1000 nM,< 1 nM,"C=CCC1(C(=O)O)CCN(Cc2ccc(-c3noc(-c4ccc(CC(C)C)c(Cl)c4)n3)cc2)CC1 [Example 12, 4-allyl-1-{4-[5-(3-chloro-4-isobutylphenyl)-[1,2,4]-oxadiazol-3-yl]benzyl}piperidine-4-carboxylic acid tert-butyl amine salt]",,> 10000 nM,EC50 (EDG5): > 1000 nM; Lymphopenia in rats % lymphopenia at given dose at 24 hrs (circulating lymphocytes [4]; Wistar female): 66% (0.3 mpk)
,> 1000 nM,< 1 nM,"COCCOCC1(C(=O)O)CCN(Cc2ccc(-c3noc(-c4ccc(CC(C)C)c(Cl)c4)n3)cc2)CC1 [Example 14, 1-{4-[5-(3-chloro-4-isobutylphenyl)-[1,2,4]-oxadiazol-3-yl]benzyl}-4-(2-methoxyethoxymethyl)piperidine-4-carboxylic acid tert-butyl amine salt]",0.2 mg/kg,> 10000 nM,EC50 (EDG5): > 1000 nM; Lymphopenia in rats % lymphopenia at given dose at 24 hrs (circulating lymphocytes [4]; Wistar male): 72% (0.3 mpk); Cmax [1]: 843 ng/mL; AUC(0-t) [1]: 9240 ng·h/mL
< 1 nM,> 1000 nM,< 1 nM,"CC(C)Cc1ccc(-c2nc(-c3ccc(CN4CCC(CO)(C(=O)O)CC4)cc3)no2)cc1Cl [Example 15, 1-{4-[5-(3-chloro-4-isobutylphenyl)-[1,2,4]-oxadiazol-3-yl]benzyl}-4-hydroxymethylpiperidine-4-carboxylic acid tert-butyl amine salt]",,> 10000 nM,EC50 (EDG5): > 1000 nM; Lymphopenia in rats % lymphopenia at given dose at 24 hrs (circulating lymphocytes [4]; Sprague-Dawley female): 69% (0.3 mpk)
